Measurements: patent publication US20180084779A1, “PLANT DISEASE CONTROL AGENT AND USE THEREOF” (NIHON NOHYAKU CO., LTD., priority 2015, published 2018)

How the values were obtained:
[1] = tested on: Septoria tritici, KUK-1-21 Strain; assay: Test for wheat leaf blotch, fluoroimide and/or SDHI agent sprayed on wheat pots, lesion area index 21 days after inoculation; assay type: in vivo; settings: for Control effect Combination with fluoroimide / Control effect SDHI alone: 21 days; for Control effect SDHI alone: fluoroimide 0 ppm; for Controlling Effect as single agent: wheat, 21 days after inoculation
Protocol: (§1) Control effect (%)=[(Disease index of no treatment area−Disease index of treatment area)/Disease index of no treatment area]×100 [Formula 1]
(§2) The expected effect (expected value E) by using an active ingredient in combination with each of other active ingredients in the above tests was determined by the following Colby formula (see COLBY, S. R., Weeds 15: 20-22 (1967)).
(§3) E(Expected effect)=(X+Y)−(X×Y/100) [Formula 2]
(§4) Test for Wheat Leaf Blotch (Septoria tritici, KUK-1-21 Strain):
Agrochemical liquids containing a predetermined concentration of fluoroimide and/or a predetermined concentration of each SDHI agent were applied to wheat in a predetermined amount with a spray gun. After air drying, a suspension of fungus spore of Septoria tritici adjusted to 1.0×10^7 spores/ml was inoculated by spraying. After that, the wheat pots were kept in a growth chamber under a light condition of at 15° C. 100% RH to encourage the development of the disease. Twenty-one days after the inoculation, the lesion area index (0-10) was set and the controlling effects and expected values are examined in the same manner as Example 1.

[2] = tested on: Septoria tritici, KUK-1-21 Strain; assay: Test for wheat leaf blotch, fluoroimide and/or DMI agent sprayed on wheat pots, lesion area index 17 days after inoculation; assay type: in vivo; settings: wheat, 17 days after inoculation
Protocol: as §4
Agrochemical liquids containing a predetermined concentration of fluoroimide and/or a predetermined concentration of each DMI agent were applied to wheat in a predetermined amount with a spray gun. After air drying, a suspension of fungus spore of Septoria tritici adjusted to 1.0×10^7 spores/ml was inoculated by spraying. After that, the wheat pots were kept in a growth chamber under a light condition of at 15° C. 100% RH to encourage the development of the disease. Seventeen days after the inoculation, the lesion area index (0-10) was determined for the evaluation of the control effect.
as §1, §2, §3
X=controlling effect of fungicide A alone
Y=controlling effect of fungicide B alone

[3] = SDHI agent 1 ppm + fluoroimide 50 ppm
[4] = SDHI agent 1 ppm + fluoroimide 100 ppm
[5] = SDHI agent 3 ppm + fluoroimide 50 ppm
[6] = SDHI agent 3 ppm + fluoroimide 100 ppm
[7] = SDHI agent 10 ppm + fluoroimide 50 ppm
[8] = SDHI agent 10 ppm + fluoroimide 100 ppm

Compound	Control effect Expected value (Colby) [1, 3] [%]	Control effect Combination with fluoroimide [1, 3] [%]	Control effect Expected value (Colby) [1, 4] [%]	Control effect Combination with fluoroimide [1, 4] [%]	Control effect SDHI alone ([1]; SDHI agent 1 ppm) [%]	Control effect Expected value (Colby) [1, 5] [%]	Control effect Combination with fluoroimide [1, 5] [%]	Control effect Expected value (Colby) [1, 6] [%]	Control effect Combination with fluoroimide [1, 6] [%]	Control effect SDHI alone ([1]; SDHI agent 3 ppm) [%]	Control effect Expected value (Colby) [1, 7] [%]	Control effect Combination with fluoroimide [1, 7] [%]	Control effect Expected value (Colby) [1, 8] [%]	Control effect Combination with fluoroimide [1, 8] [%]	Control effect SDHI alone ([1]; SDHI agent 10 ppm) [%]	Controlling Effect as single agent ([2]; fluoroimide alone 50 ppm) [%]	Controlling Effect as single agent ([2]; fluoroimide alone 100 ppm) [%]	Controlling Effect as single agent ([1]; fluoroimide alone 50 ppm) [%]	Controlling Effect as single agent ([1]; fluoroimide alone 100 ppm) [%]
O=C(Nc1ccccc1-c1ccc(Cl)cc1)c1cccnc1Cl [boscalid]	10	15	29	0	5	19	65	36	80	15	62	100	70	95	60				
O=C1C(Cl)=C(Cl)C(=O)N1c1ccc(F)cc1 [fluoroimide]																25	50	5	25
Cn1cc(C(=O)Nc2ccccc2-c2cc(F)c(F)c(F)c2)c(C(F)F)n1 [fluxapyroxad]	5	15	25	50	0	95	90	96	100	95	100	100	100	100	100				
CC(C)C1C2CCC1c1c(NC(=O)c3cn(C)nc3C(F)F)cccc12 (stereo not shown) [isopyrazam]	19	60	36	20	15	76	85	81	85	75	100	100	100	100	100				
